Results reported in PMC4445328, “Azasugar inhibitors as pharmacological chaperones for Krabbe disease” (Chemical Science, 2015).
Like-named read-outs stand apart in the source and are kept apart here.

Assays:
GALC [1] = biological target: T1, GALC (Mus musculus, UniProt P54818); test: Differential scanning fluorimetry (DSF) thermal shift of wild-type GALC; type: binding; conditions: for ΔTm at 5000 µM / ΔTm1 pH 7.4 (first transition of double sigmoid melt curve) / ΔTm2 pH 7.4 (second transition of double sigmoid melt curve): 5.0 mM compound; for ΔTm at 5000 µM: triplicate; for additional increase of Tm over DGJ, DIL and IGL / increase of Tm of wild-type enzyme: pH 4.6, 5 mM; for ΔTm1 pH 7.4 (first transition of double sigmoid melt curve) / ΔTm2 pH 7.4 (second transition of double sigmoid melt curve): PBS pH 7.4
T1 construct: made in house
T1 sequence (P54818 43-684): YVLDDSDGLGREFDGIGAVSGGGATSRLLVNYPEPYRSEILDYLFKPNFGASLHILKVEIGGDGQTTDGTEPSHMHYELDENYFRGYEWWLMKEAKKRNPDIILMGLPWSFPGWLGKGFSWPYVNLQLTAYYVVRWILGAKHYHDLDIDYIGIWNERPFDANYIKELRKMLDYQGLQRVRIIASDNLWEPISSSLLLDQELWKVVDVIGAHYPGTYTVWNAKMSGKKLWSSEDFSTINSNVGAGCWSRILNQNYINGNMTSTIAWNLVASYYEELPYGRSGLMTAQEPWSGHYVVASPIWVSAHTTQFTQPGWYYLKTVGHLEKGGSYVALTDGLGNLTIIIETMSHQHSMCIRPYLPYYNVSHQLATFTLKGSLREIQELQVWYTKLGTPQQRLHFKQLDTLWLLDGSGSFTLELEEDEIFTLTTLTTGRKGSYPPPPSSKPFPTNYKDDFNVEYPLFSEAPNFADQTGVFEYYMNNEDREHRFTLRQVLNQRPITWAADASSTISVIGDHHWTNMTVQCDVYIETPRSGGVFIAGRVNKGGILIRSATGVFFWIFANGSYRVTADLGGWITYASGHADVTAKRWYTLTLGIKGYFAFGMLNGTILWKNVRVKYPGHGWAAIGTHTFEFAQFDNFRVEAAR

[2] = biological target: T2, β-galactocerebrosidase (GALC) (Mus musculus, UniProt P54818); test: GALC enzyme inhibition kinetics, Ki determination with chromogenic substrate 4NβDG; type: biochemical; conditions: for Ki: pH 4.6, substrate 4-nitrophenyl-β-D-galactopyranoside, steady-state, competitive inhibition model; for times more potent inhibitors of GALC than pyrrolidine DIL and lactam IGL: pH 4.6, ratio of Ki values
T2 construct: made in house
T2 sequence (P54818 43-684): T1 sequence (P54818 43-684)

[3] = pKaH and protonation state of azasugars; type: physicochemical; conditions: pH 7.4, from pKaH
[4] = parameters: method as in PMID 11891910; conditions: cited from earlier work
GALC E258Q = biological target: T3, GALC E258Q (Mus musculus, UniProt P54818, E274Q); test: DSF thermal shift of GALC E258Q mutant; type: binding; conditions: pH 7.4 PBS, 10 mM compound
T3 construct: made in house
T3 sequence (P54818 41-684 E274Q limits assumed): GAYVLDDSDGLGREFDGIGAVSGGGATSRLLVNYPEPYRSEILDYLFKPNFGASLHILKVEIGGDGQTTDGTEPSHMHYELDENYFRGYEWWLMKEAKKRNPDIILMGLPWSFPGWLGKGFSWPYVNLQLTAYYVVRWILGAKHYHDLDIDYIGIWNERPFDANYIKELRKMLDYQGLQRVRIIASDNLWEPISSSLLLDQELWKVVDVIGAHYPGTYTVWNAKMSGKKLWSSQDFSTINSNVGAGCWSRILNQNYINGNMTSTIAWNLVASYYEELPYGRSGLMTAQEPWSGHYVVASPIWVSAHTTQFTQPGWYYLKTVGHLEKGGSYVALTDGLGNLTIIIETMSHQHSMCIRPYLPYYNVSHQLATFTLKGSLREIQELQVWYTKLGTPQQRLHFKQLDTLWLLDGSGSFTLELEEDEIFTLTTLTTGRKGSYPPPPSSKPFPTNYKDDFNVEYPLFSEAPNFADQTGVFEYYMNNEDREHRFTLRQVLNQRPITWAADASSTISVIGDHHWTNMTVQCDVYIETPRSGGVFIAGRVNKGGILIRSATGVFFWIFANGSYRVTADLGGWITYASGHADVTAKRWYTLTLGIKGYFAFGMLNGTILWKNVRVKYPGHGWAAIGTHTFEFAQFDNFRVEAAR
Text: All molecules form stabilizing hydrogen bonds with the side chain of E258 in the active site (Fig. 8A). […] Thus E258 O^ε2 could be forming a tight electrostatic interaction with the charged nitrogen in the ring of these molecules. Mutation of E258 to glutamine allows for the maintenance of a hydrogen bond but not an electrostatic interaction. We expressed and purified the E258Q mutant and repeated the DSF experiments at both pH 4.6 and pH 7.4. The importance of this interaction between E258 and the candidate chaperone molecules is highlighted by the complete loss of stabilization of GALC E258Q at pH 4.6 by all molecules except lactam IGL, which is incapable of forming a salt bridge (Fig. 8B). At pH 7.4, the global stability conferred by piperidine IGF to the E258Q mutant has lost the double sigmoid features seen for the wild-type GALC at pH 7.4 (Fig. 4A and 8C). […] To further understand the nature of the GALC–IGF interaction that is conferring the double melt curve we carried out DSF experiments at a range of pH values. […]
DSF experiments were performed in 48-well plates, 50 μL reactions comprised 5.0 μg GALC and 5× SyPRO Orange dye in either PBS pH 7.4, 20 mM Tris pH 7.4 or 20 mM sodium acetate pH 4.6. […] SyPRO fluorescence was monitored on the HEX channel. […] Stabilization is expressed as the ΔT m compared to a protein-only control. […]

GALC [5] = biological target: T1, GALC; test: GALC crystal soaks, X-ray ligand binding in the active site; conditions: 20 mM ligand crystal soak; non-binders repeated for 1 hour and overnight
[6] = 50 mM, Fig. S2, pH 4.6 and pH 7.4
[7] = PBS pH 7.4, mean ± SEM, read-out: ΔTm pH 7.4
[8] = sodium acetate pH 4.6, mean ± SEM, read-out: ΔTm pH 4.6

In the case of `OC[C@H]1OC(O)[C@H](O)[C@@H](O)[C@H]1O` (mixture of isomers) [galactose, reference compound], the “stabilization of GALC” value (GALC [1]; [6]) is reported as “no stabilization” and the Ki [2] is reported as 7200 µM.

For `O=CC[C@@H](O)[C@@H](O)[C@H](O)CO` [2-deoxy-galactose, reference compound], the “stabilization of GALC” value (GALC [1]; [6]) was “no stabilization”.

For `OC[C@H]1NNC[C@@H](O)[C@H]1O` [AGF, aza-galacto-fagomine], the “molecules possessing a positive charge at pH 7.4” value [3] is listed as 2%, the pKaH [4] is listed as 5.7 and the ΔTm at 5000 µM (GALC [1]; [7]) is listed as 4.6 °C. For the same compound, the ΔTm at 5000 µM (GALC [1]; [8]) was 16.4 °C, the “additional increase of Tm over DGJ, DIL and IGL” value (GALC [1]) was 8–9 degrees and the “times more potent inhibitors of GALC than pyrrolidine DIL and lactam IGL” value [2] was “greater than 80 times”. It also gave a Ki [2] of 0.63 ± 0.053 µM.

For `OCC1NCC(O)C(O)C1O` (stereo not shown) [DGJ, 1-deoxy-galacto-nojirimycin, reference compound], the ΔTm at 5000 µM (GALC [1]; [7]) was 5.2 °C and the “increase of Tm of wild-type enzyme” value (GALC [1]) was 6–8 degrees.

With `OCC1C2CCC(N2)C(O)C1O` (stereo not shown) [DGN, deoxy-galacto-noeurostegine] the ΔTm at 5000 µM (GALC [1]; [7]) was -3.6 ± 0.1 °C, the ΔTm at 5000 µM (GALC [1]; [8]) was 1 °C and the “effect on global stability of wild-type GALC” value (GALC [1]; pH 7.4) was “destabilized GALC”.

For `OC[C@H]1NC[C@@H](O)[C@H]1O` [DIL], the ΔTm at 5000 µM (GALC [1]; [7]) was 4 °C, the ΔTm at 5000 µM (GALC [1]; [8]) was 7.2 °C and the “increase of Tm of wild-type enzyme” value (GALC [1]) was 6–8 degrees. The Ki [2] was 130 ± 6 µM.

In the case of `OC[C@H]1NC[C@H](O)[C@@H](O)[C@@H]1O` [DNJ, 1-deoxynojirimycin, reference compound], the “stabilization of GALC” value (GALC [1]; up to 10 mM, either pH (4.6 or 7.4), Fig. S2) is reported as “unable to stabilize GALC”.

In the case of `OC[C@H]1CNC[C@@H](O)[C@H]1O` [IGF, iso-galacto-fagomine], the “molecules possessing a positive charge at pH 7.4” value [3] is given as 96%, the “higher Tm2 with GALC E258Q” value (GALC E258Q) is given as “abolished” and the pKaH [4] is given as 8.8. For the same compound, the “ΔTm1 pH 7.4 (first transition of double sigmoid melt curve)” value (GALC [1]) was 4 °C, the “ΔTm2 pH 7.4 (second transition of double sigmoid melt curve)” value (GALC [1]) was 21 °C and the “ΔTm1 pH 7.4 (first transition of double sigmoid melt curve)” value (GALC [1]; listed as IGF1) was “+4.0 ± 0.3 °C”. For the same compound, the “ΔTm2 pH 7.4 (second transition of double sigmoid melt curve)” value (GALC [1]; listed as IGF2) was “+21.0 ± 0.2 °C”, the ΔTm at 5000 µM (GALC [1]; [8]) was 17.7 °C and the “additional increase of Tm over DGJ, DIL and IGL” value (GALC [1]) was 8–9 degrees. For the same compound, the “times more potent inhibitors of GALC than pyrrolidine DIL and lactam IGL” value [2] was “greater than 80 times” and the Ki [2] was 0.38 ± 0.026 µM.

In the case of `O=C1NC[C@H](CO)[C@H](O)[C@@H]1O` [IGL, iso-galacto-fagomine lactam], the ΔTm at 5000 µM (GALC [1]; [7]) is reported as 1.6 °C, the ΔTm at 5000 µM (GALC [1]; [8]) is reported as 8.1 °C and the “increase of Tm of wild-type enzyme” value (GALC [1]) is reported as 6–8 degrees. It also gave a Ki [2] of 52 ± 3 µM.

For `CN1[C@@H](CC(=O)c2ccccc2)CCC[C@H]1C[C@H](O)c1ccccc1` [α-lobeline, reference compound], the “binding in GALC crystals (difference electron density in active site)” value (GALC [5]) was “not observed to bind” and the “change in Tm” value (GALC [1]; either pH (4.6 or 7.4), data not shown) was “No change in T m”.
